Type in all cases: in vivo
Assay [1] concerns Cotton Aphid (Aphis gossypii). The assay can be described thus: Insecticidal test for cotton aphid in foliar spray assay on squash. The conditions noted are these: Corrected % Control (Abbott), 3 days after spray. Set-up: key: A: 90-100; B: 80-89; C: 70-79; D: 60-69; E: 50-59; F: Less than 50; G: Inactive; H: Not tested. The procedure:
Insecticidal Test for Cotton Aphid (Aphis gossypii) in Foliar Spray Assay Squash with fully expanded cotyledon leaves were trimmed to one cotyledon per plant and infested with cotton aphid (wingless adult and nymph) 1 day prior to chemical application. Each plant was examined before chemical application to ensure proper infestation (ca. 30-70 aphids per plant). Compounds (2 mg) were dissolved in 2 ml of acetone:methanol (1:1) solvent, forming stock solutions of 1000 ppm. The stock solutions were diluted 5× with 0.025% Tween 20 in H2O to obtain a solution at 200 ppm. Lower concentrations (50, 12.5, 3.125, 0.781 and 0.195 ppm) were prepared by making sequential 4× dilutions from the 200 ppm solution with a diluent consisting 80 parts of 0.025% Tween 20 in H2O and 20 parts of acetone:methanol (1:1). A hand-held Devilbiss sprayer was used to apply the spray solutions until runoff to both sides of the squash cotyledon leaves. Four plants (4 replications) were used for each concentration of each compound. Reference plants (solvent check) were sprayed with the diluent only. Treated plants were held in a holding room for 3 days at approximately 23° C. and 40% RH before the number of live aphids on each plant was recorded. Insecticidal activity was measured by Corrected % Control using Abbott's correction formula and presented in Table 1: Corrected % Control=100*(X−Y)/X • where X=No. of live aphids on solvent check plants • Y=No. of live aphids on treated plants

The subject of assay [2] is Green Peach Aphid (Myzus persicae). The assay can be described thus: Insecticidal test for green peach aphid in foliar spray assay on cabbage. Details: key: A: 90-100; B: 80-89; C: 70-79; D: 60-69; E: 50-59; F: Less than 50; G: Inactive; H: Not tested. The conditions noted are these: Corrected % Control (Abbott), three days after spray. The protocol:
Insecticidal Test for Green Peach Aphid (Myzus persicae) in Foliar Spray Assay Cabbage seedlings grown in 3-inch pots, with 2-3 small (3-5 cm) true leaves, were used as test substrate. The seedlings were infested with 20-50 green peach aphids (wingless adult and nymph) 2-3 days prior to chemical application. Four seedlings were used for each treatment. Compounds (2 mg) were dissolved in 2 ml of acetone:methanol (1:1) solvent, forming stock solutions of 1000 ppm. The stock solutions were diluted 5× with 0.025% Tween 20 in H2O to obtain a solution at 200 ppm. Lower concentrations (50, 12.5, 3.125 and 0.781 ppm) were prepared by making sequential 4× dilutions from the 200 ppm solution with a diluent consisting 80 parts of 0.025% Tween 20 in H2O and 20 parts of acetone:methanol (1:1). A hand-held Devilbiss sprayer was used for spraying a solution to both sides of cabbage leaves until runoff. Reference plants (solvent check) were sprayed with the diluent only. Treated plants were held in a holding room for three days at approximately 23° C. and 40% RH prior to grading. Evaluation was conducted by counting the number of live aphids per plant under a microscope. Insecticidal activity was measured by using Abbott's correction formula: Corrected % Control=100*(X−Y)/X • where X=No. of live aphids on solvent check plants • Y=No. of live aphids on treated plants

For assay [3], the system named is Brown Planthopper (Nilaparvata lugens). The assay can be described thus: Root-uptake systemic assay on rice, brown planthopper. The conditions noted are these: 10 ppm in water of rice seedlings, 3rd instar nymphs, mortality observed at 2 and 6 days (day of tabled value not stated). The protocol:
(§1) Insecticidal Test for Brown Planthopper (Nilaparvata lugens) and Green Leafhopper (Nephotettix sp.) A root-uptake systemic assay was performed on both brown planthopper and green leafhopper. Four-week-old rice seedlings were submerged in 3-cm depth of water in the bottom portion (high 5 cm, diameter 3 cm) of a 2-part glass cylinder (high 18 cm, diameter 3 cm). A metal screen was used to hold the seedlings within the bottom portion. Scotch tape was used to bind the two portions of the cylinder after setting up the seedlings. A metal cap was used to cover the cylinder. There were 4 cylinders for each treatment. The test compound was dissolved in acetone to make a 10,000 ppm stock solution. The stock solution was incorporated at final test concentrations of 10 ppm in the water in which rice seedlings were submerged. Five laboratory-reared 3rd instar nymphs of brown planthopper or green leafhopper were introduced into each cylinder 3 hr after insecticide application. The treated test units were kept in a growth chamber with conditions set as followings: Temperature 28±0.5° C.; Relative humidity 70±0.5%; Photoperiod […].

For assay [4], the system named is Sweet Potato Whitefly (Bemisia tabaci). Description: Insecticidal test for sweet potato whitefly in foliar spray assay on cotton. The conditions noted are these: live large nymphs counted 12 days after spray of egg-infested leaves. An excerpt: Insecticidal Test for Sweet Potato Whitefly (Bemisia tabaci) in Foliar Spray Assay This test was designed to measure the capability of whitefly eggs and/or young nymphs to develop to large nymphs. Cotton seedlings at the growth stage of one or two expanding true leaf were trimmed so that only the first true leaf remained (cotyledon leaves were also removed). The plants were pre-infested with sweet potato whitefly eggs by keeping plants next to the colony-keeping plants for two days. The infested plants were carefully checked for presence of similar egg density before use in the insecticidal tests. Master solutions of test compounds at 1000 ppm were prepared in acetone: methanol (1:1). The 12.5 ppm spray solutions were then made by diluting 0.188 mL of the master solution with 14.812 ml of 0.025% Tween 20 in water. The lower concentrations were made by diluting the 12.5 ppm spray solution with a diluent consisting 98.75 parts of 0.025% Tween 20 in water and 1.25 parts of acetone:methanol (1:1). The diluent was used as solvent control. The test solutions were sprayed with a hand-held Devilbiss sprayer until runoff to both sides of the infested cotton leaves. Four plants (4 replications) were used for each treatment. Treated plants were held in a holding room for 12 days at approximately 23° C. and 40% RH before evaluation. To evaluate the efficacy of the compounds, the number of live large nymphs in an area of 1 square inch on the lower surface of the treated cotton leaves was counted under a microscope. Insecticidal activity was determined by Corrected % Control using Abbott's correction formula and presented in Table 3: Corrected % Control=100*(X−Y)/X • where X=No. of live large nymphs on solvent check plants • Y=No. of live large nymphs on treated plants

Assay [5] relates to Green Leafhopper (Nephotettix sp.). The assay can be described thus: Root-uptake systemic assay on rice, green leafhopper. The conditions noted are these: 10 ppm in water of rice seedlings, 3rd instar nymphs, mortality observed at 2 and 6 days (day of tabled value not stated). The procedure: as §1

Take `CS(=O)(=NC#N)C1(c2ccc(Cl)nc2)CCOCC1` (stereo not drawn) [Compound 6, methyl(oxido)[4-(6-chloropyridin-3-yl)tetra hydro-pyran-4-yl]-λ^4-sulfanylidenecyanamide]: the “% Control at ppm, against cotton aphid on squash (foliar spray)” value (from here on “% Control at ppm, against cotton aphid”) in assay [1] (0.78 ppm), in assay [1] (3.13 ppm), in assay [1] (12.5 ppm) and in assay [1] (50 ppm) was “A (90-100)” throughout. For the same compound, the “% Control at ppm, against green peach aphid on cabbage (foliar spray)” value (shortened to “% Control at ppm … on cabbage (foliar spray)”) in assay [2] (0.78 ppm) is “G”; in assay [2] (3.13 ppm), “G”; in assay [2] (12.5 ppm), “G”; in assay [2] (50 ppm), “G”; in assay [2] (200 ppm) it was “A (90-100)”.

For the compound `CS(=O)(=NC#N)C1(c2ccc(C(F)(F)F)nc2)CC1` (stereo not drawn) [Compound 1, methyl(oxido) {1-[6-(trifluoromethyl)pyridin-3-yl]cyclopropyl}-λ^4-sulfanylidenecyanamide], the “% Control at ppm, against cotton aphid” value in assay [1] (0.78 ppm), in assay [1] (3.13 ppm), in assay [1] (12.5 ppm) and in assay [1] (50 ppm) was “A (90-100)” each time. In addition, the “% Control at ppm … on cabbage (foliar spray)” value in assay [2] (0.78 ppm) was “F (Less than 50)”; in assay [2] (3.13 ppm) it was “B (80-89)”; in assay [2] (12.5 ppm), “A (90-100)”; in assay [2] (50 ppm), “A (90-100)”; in assay [2] (200 ppm), “A (90-100)”.

As for `CS(=O)(=NC#N)C1(c2ccc(Cl)nc2)CCCC1` (stereo not drawn) [Compound 4, methyl(oxido)[1-(6-chloropyridin-3-yl)cyclopentyl]-λ^4-sulfanylidenecyanamide], in assay [1] (50 ppm), the “% Control at ppm, against cotton aphid” value was “A (90-100)”.

`CS(=O)(=NC#N)C1(c2ccc(Cl)nc2)CCC1` (stereo not drawn) [Compound 3, methyl(oxido)[1-(6-chloropyridin-3-yl)cyclobutyl]-λ^4-sulfanylidenecyanamide]: the “% Control at ppm, against cotton aphid” value in assay [1] (50 ppm) was “A (90-100)”.

For the compound `CS(=O)(=NC#N)C1(c2ccc(Cl)nc2)CC1` (stereo not drawn) [Compound 2, methyl(oxido) [1-(6-chloropyridin-3-yl)cyclopropyl]-λ^4-sulfanylidenecyanamide], in assay [3], the “% Systemic Control at 10 ppm on rice, Brown Planthopper” value is on record as “E (50-59)”. The “% Control at ppm, against cotton aphid” value in assay [1] (0.78 ppm) and in assay [1] (3.13 ppm) was “A (90-100)” throughout. The “% Control at ppm, against sweet potato whitefly on cotton, foliar spray” value in assay [4] (0.781 ppm) is on record as “F (Less than 50)”; in assay [4] (3.125 ppm) it was “E (50-59)”; in assay [4] (12.500 ppm) it was “C (70-79)”. The “% Control at ppm … on cabbage (foliar spray)” value in assay [2] (0.78 ppm) is on record as “D (60-69)”; in assay [2] (3.13 ppm), “A (90-100)”. In addition, the “% Systemic Control at 10 ppm on rice, Green Leafhopper” value in assay [5] is on record as “B (80-89)”.

Take `CS(=O)(=NC#N)C1(c2ccc(Cl)nc2)CCCCC1` (stereo not drawn) [Compound 5, methyl(oxido)[1-(6-chloropyridin-3-yl)cyclohexyl]-λ^4-sulfanylidenecyanamide]: the “% Control at ppm, against cotton aphid” value in assay [1] (0.78 ppm) is recorded as “G”; in assay [1] (3.13 ppm), “A (90-100)”; in assay [1] (12.5 ppm) it was “A (90-100)”; in assay [1] (50 ppm), “A (90-100)”.
